# Measurements published in patent US8673942B2, “Fused ring compounds and use thereof” (Takeda Pharmaceutical Company Limited, priority 2008, dated 2014).
row,SMILES,melting point [°C]
1,"CNC(=O)CC1CN=C(c2cc3cc(Oc4ccc(S(C)(=O)=O)nc4)cc(OC)c3[nH]2)S1 (single isomer, unassigned) [Example 32, 2-[2-(7-Methoxy-5-{[6-(methylsulfonyl)pyridin-3-yl]oxy}-1H-indol-2-yl)-4,5-dihydro-1,3-thiazol-5-yl]-N-methylacetamide]",195 to 197
2,"CS(=O)(=O)c1ccc(Oc2cc(OCc3ccccc3)c3[nH]c(C4=NCC(CCO)S4)cc3c2)cc1 (stereo not drawn) [Example 2, 2-(2-{7-(Benzyloxy)-5-[4-(methylsulfonyl)phenoxy]-1H-indol-2-yl}-4,5-dihydro-1,3-thiazol-5-yl)ethanol]",97 to 98
3,"CS(=O)(=O)c1ccc(Oc2cc(OCc3ccccc3)c3[nH]c(C4=NCC(CC(N)=O)S4)cc3c2)cc1 (stereo not drawn) [Example 4, 2-(2-{7-(Benzyloxy)-5-[4-(methylsulfonyl)phenoxy]-1H-indol-2-yl}-4,5-dihydro-1,3-thiazol-5-yl)acetamide]",134 to 135
4,"CS(=O)(=O)c1ccc(Oc2cc(OCc3cccc(Cl)n3)c3[nH]c(C4=NCC(CCO)S4)cc3c2)cc1 (stereo not drawn) [Example 6, 2-(2-{7-[(6-Chloropyridin-2-yl)methoxy]-5-[4-(methylsulfonyl)phenoxy]-1H-indol-2-yl}-4,5-dihydro-1,3-thiazol-5-yl)ethanol]",93 to 94
5,"CS(=O)(=O)c1ccc(Oc2cc(OCc3cccc(Cl)n3)c3[nH]c(C4=NCC(CC(N)=O)S4)cc3c2)cc1 (stereo not drawn) [Example 8, 2-(2-{7-[(6-Chloropyridin-2-yl)methoxy]-5-[4-(methylsulfonyl)phenoxy]-1H-indol-2-yl}-4,5-dihydro-1,3-thiazol-5-yl)acetamide]",147 to 148
6,"CCOC(=O)c1nnc(-c2cc3cc(Oc4ccc(S(C)(=O)=O)cc4)cc(OCc4ccccc4)c3[nH]2)s1 [Example 20, Ethyl 5-{7-(benzyloxy)-5-[4-(methylsulfonyl)phenoxy]-1H-indol-2-yl}-1,3,4-thiadiazole-2-carboxylate]",194 to 195
7,"CS(=O)(=O)c1ccc(Oc2cc(OCc3ccccc3)c3[nH]c(-c4nnc(CO)s4)cc3c2)cc1 [Example 21, (5-{7-(Benzyloxy)-5-[4-(methylsulfonyl)phenoxy]-1H-indol-2-yl}-1,3,4-thiadiazol-2-yl)methanol]",159 to 160
8,"CS(=O)(=O)c1ccc(Oc2cc(OCc3ccccc3)c3[nH]c(-c4ncc(CO)s4)cc3c2)cc1 [Example 23, (2-{7-(Benzyloxy)-5-[4-(methylsulfonyl)phenoxy]-1H-indol-2-yl}-1,3-thiazol-5-yl)methanol]",125 to 126
9,"COc1cc(Oc2ccc(S(C)(=O)=O)nc2)cc2cc(C3=NCC(CC(N)=O)S3)[nH]c12 (stereo not drawn) [Example 29, 2-[2-(7-Methoxy-5-{[6-(methylsulfonyl)pyridin-3-yl]oxy}-1H-indol-2-yl)-4,5-dihydro-1,3-thiazol-5-yl]acetamide]",225 to 227
10,"CNC(=O)CC1CN=C(c2cc3cc(Oc4ccc(S(C)(=O)=O)nc4)cc(OC)c3[nH]2)S1 (stereo not drawn) [Example 30, 2-[2-(7-Methoxy-5-{[6-(methylsulfonyl)pyridin-3-yl]oxy}-1H-indol-2-yl)-4,5-dihydro-1,3-thiazol-5-yl]-N-Methylacetamide]",201 to 202
11,"COCC(COC)Oc1cc(Oc2ccc(S(C)(=O)=O)nc2)cc2cc(C3=NCC(CC(N)=O)S3)[nH]c12 (stereo not drawn) [Example 35, 2-[2-(7-[2-Methoxy-1-(methoxymethyl)ethoxy]-5-{[6-(methylsulfonyl)pyridin-3-yl]oxy}-1H-indol-2-yl)-4,5-dihydro-1,3-thiazol-5-yl]acetamide]",172 to 173
12,"CNC(=O)CC1CN=C(c2cc3cc(Oc4ccc(S(C)(=O)=O)nc4)cc(OC(COC)COC)c3[nH]2)S1 (stereo not drawn) [Example 36, 2-[2-(7-[2-Methoxy-1-(methoxymethyl)ethoxy]-5-{[6-(methylsulfonyl)pyridin-3-yl]oxy}-1H-indol-2-yl)-4,5-dihydro-1,3-thiazol-5-yl]-N-methylacetamide]",149 to 151
13,"COCC(COC)Oc1cc(Oc2ccc(S(C)(=O)=O)nc2)cc2cc(C3=NCC(CCO)S3)[nH]c12 (stereo not drawn) [Example 37, 2-[2-(7-[2-Methoxy-1-(methoxymethyl)ethoxy]-5-{[6-(methylsulfonyl)pyridin-3-yl]oxy}-1H-indol-2-yl)-4,5-dihydro-1,3-thiazol-5-yl]ethanol]",69 to 71

# Results, then the compound that gave them:
row,melting point [°C],SMILES
1,145 to 146,"CC(C)Oc1cc(Oc2ccc(S(C)(=O)=O)cn2)cc2cc(C3=NCC(CC(C)(C)O)S3)[nH]c12 (single isomer, unassigned) [Example 64, 2-Methyl-1-{2-[7-(1-methylethoxy)-5-{[5-(methylsulfonyl)pyridin-2-yl]oxy}-1H-indol-2-yl]-4,5-dihydro-1,3-thiazol-5-yl}propan-2-ol]"
2,207 to 209,"CNC(=O)CC1CN=C(c2cc3cc(Oc4ccc(S(C)(=O)=O)cn4)cc(OC)c3[nH]2)S1 (stereo not drawn) [Example 42, 2-[2-(7-Methoxy-5-{[5-(methylsulfonyl)pyridin-2-yl]oxy}-1H-indol-2-yl)-4,5-dihydro-1,3-thiazol-5-yl]-N-methylacetamide]"
3,123 to 125,"CNC(=O)CC1CN=C(c2cc3cc(Oc4ccc(S(C)(=O)=O)cn4)cc(OC(COC)COC)c3[nH]2)S1 (stereo not drawn) [Example 46, 2-[2-(7-[2-Methoxy-1-(methoxymethyl)ethoxy]-5-{[5-(methylsulfonyl)pyridin-2-yl]oxy}-1H-indol-2-yl)-4,5-dihydro-1,3-thiazol-5-yl]-N-methylacetamide]"
4,135 to 136,"COCc1ccc(Oc2cc(OC)c3[nH]c(C4=NCC(CC(N)=O)S4)cc3c2)cn1 (stereo not drawn) [Example 49, 2-[2-(7-Methoxy-5-{[6-(methoxymethyl)pyridin-3-yl]oxy}-1H-indol-2-yl)-4,5-dihydro-1,3-thiazol-5-yl]acetamide]"
5,102 to 104,"CNC(=O)CC1CN=C(c2cc3cc(Oc4ccc(COC)nc4)cc(OC)c3[nH]2)S1 (stereo not drawn) [Example 50, 2-[2-(7-Methoxy-5-{[6-(methoxymethyl)pyridin-3-yl]oxy}-1H-indol-2-yl)-4,5-dihydro-1,3-thiazol-5-yl]-N-methylacetamide]"
6,130 to 132,"CCNC(=O)CC1CN=C(c2cc3cc(Oc4ccc(COC)nc4)cc(OC)c3[nH]2)S1 (stereo not drawn) [Example 51, N-Ethyl-2-[2-(7-methoxy-5-{[6-(methoxymethyl)pyridin-3-yl]oxy}-1H-indol-2-yl)-4,5-dihydro-1,3-thiazol-5-yl]acetamide]"
7,112 to 113,"COCC(C)Oc1cc(Oc2ccc(S(C)(=O)=O)cc2)cc2cc(C3=NCC(CC(C)(C)O)S3)[nH]c12 (stereo not drawn) [Example 60, 1-(2-{7-(2-Methoxy-1-methylethoxy)-5-[4-(methylsulfonyl)phenoxy]-1H-indol-2-yl}-4,5-dihydro-1,3-thiazol-5-yl)-2-methylpropan-2-ol]"
8,172 to 173,CC(C)Oc1cc(Oc2ccc(S(C)(=O)=O)cn2)cc2cc(C3=NCC(CCO)S3)[nH]c12 (stereo not drawn) [Example 62]
9,151 to 153,"CC(C)Oc1cc(Oc2ccc(S(C)(=O)=O)cn2)cc2cc(C3=NCC(CC(C)(C)O)S3)[nH]c12 (stereo not drawn) [Example 63, 2-Methyl-1-{2-[7-(1-methylethoxy)-5-{[5-(methylsulfonyl)pyridin-2-yl]oxy}-1H-indol-2-yl]-4,5-dihydro-1,3-thiazol-5-yl}propan-2-ol]"
10,212 to 213,"CC(C)Oc1cc(Oc2ccc(S(C)(=O)=O)cn2)cc2cc(C3=NCC(CC(N)=O)S3)[nH]c12 (stereo not drawn) [Example 67, 2-{2-[7-(1-Methylethoxy)-5-{[5-(methylsulfonyl)pyridin-2-yl]oxy}-1H-indol-2-yl]-4,5-dihydro-1,3-thiazol-5-yl}acetamide]"
11,190 to 192,"CNC(=O)CC1CN=C(c2cc3cc(Oc4ccc(S(C)(=O)=O)cn4)cc(OC(C)C)c3[nH]2)S1 (stereo not drawn) [Example 68, N-Methyl-2-{2-[7-(1-methylethoxy)-5-{[5-(methylsulfonyl)pyridin-2-yl]oxy}-1H-indol-2-yl]-4,5-dihydro-1,3-thiazol-5-yl}acetamide]"
12,100 to 101,"COCc1ccc(Oc2cc(OC(C)C)c3[nH]c(C4=NCC(CC(=O)NC5CC5)S4)cc3c2)cn1 (stereo not drawn) [Example 72, N-Cyclopropyl-2-{2-[5-{[6-(methoxymethyl)pyridin-3-yl]oxy}-7-(1-methylethoxy)-1H-indol-2-yl]-4,5-dihydro-1,3-thiazol-5-yl}acetamide]"
13,200 to 201,"COc1cc(Oc2ccc(S(C)(=O)=O)nc2)cc2cc(C3=NCC(CC(=O)NCC(C)(C)O)S3)[nH]c12 (stereo not drawn) [Example 73, N-(2-Hydroxy-2-methylpropyl)-2-[2-(7-methoxy-5-{[6-(methylsulfonyl)pyridin-3-yl]oxy}-1H-indol-2-yl)-4,5-dihydro-1,3-thiazol-5-yl]acetamide]"
14,248 to 249,"COc1cc(Oc2ccc(S(C)(=O)=O)nc2)cc2cc(C3=NCC(CC(=O)NC4CC4)S3)[nH]c12 (stereo not drawn) [Example 76, N-Cyclopropyl-2-[2-(7-methoxy-5-{[6-(methylsulfonyl)pyridin-3-yl]oxy}-1H-indol-2-yl)-4,5-dihydro-1,3-thiazol-5-yl]acetamide]"
15,236 to 237,"CCNC(=O)CC1CN=C(c2cc3cc(Oc4ccc(S(C)(=O)=O)nc4)cc(OC)c3[nH]2)S1 (stereo not drawn) [Example 77, N-Ethyl-2-[2-(7-methoxy-5-{[6-(methylsulfonyl)pyridin-3-yl]oxy}-1H-indol-2-yl)-4,5-dihydro-1,3-thiazol-5-yl]acetamide]"
16,138 to 139,"COCC(C)Oc1cc(Oc2ccc(S(C)(=O)=O)nc2)cc2cc(C3=NCC(CCO)S3)[nH]c12 (stereo not drawn) [Example 84, 2-{2-[7-(2-Methoxy-1-methylethoxy)-5-{[6-(methylsulfonyl)pyridin-3-yl]oxy}-1H-indol-2-yl]-4,5-dihydro-1,3-thiazol-5-yl}ethanol]"
17,131 to 132,"COCC(C)Oc1cc(Oc2ccc(S(C)(=O)=O)nc2)cc2cc(C3=NCC(CC(N)=O)S3)[nH]c12 (stereo not drawn) [Example 86, 2-{2-[7-(2-Methoxy-1-methylethoxy)-5-{[6-(methylsulfonyl)pyridin-3-yl]oxy}-1H-indol-2-yl]-4,5-dihydro-1,3-thiazol-5-yl}acetamide]"
